From ChEMBL document CHEMBL4004803, “Syntheses and antibacterial activity of soluble 9-bromo substituted indolizinoquinoline-5,12-dione derivatives” (Eur J Med Chem, 2017)
Converted amounts (≈) assume the structure as drawn.

What was measured:
Format in all cases: functional
Staphylococcus aureus [1] = experiment: Antibacterial activity against methicillin-resistant Staphylococcus aureus 110910-2 clinical isolate after 20 to 24 hrs by two-fold microdilution method
Staphylococcus aureus [2] = experiment: Antibacterial activity against methicillin-resistant Staphylococcus aureus 921026 clinical isolate after 20 to 24 hrs by two-fold microdilution method
Staphylococcus aureus [3] = experiment: Antibacterial activity against methicillin-resistant Staphylococcus aureus 20534 clinical isolate after 20 to 24 hrs by two-fold microdilution method
Staphylococcus aureus [4] = experiment: Antibacterial activity against methicillin-resistant Staphylococcus aureus 103054 clinical isolate after 20 to 24 hrs by two-fold microdilution method
Staphylococcus aureus [5] = experiment: Antibacterial activity against methicillin-resistant Staphylococcus aureus 19950 clinical isolate after 20 to 24 hrs by two-fold microdilution method
Staphylococcus aureus [6] = experiment: Antibacterial activity against methicillin-resistant Staphylococcus aureus 1101016 clinical isolate after 20 to 24 hrs by two-fold microdilution method
Staphylococcus aureus [7] = experiment: Antibacterial activity against methicillin-resistant Staphylococcus aureus 305026 clinical isolate after 20 to 24 hrs by two-fold microdilution method
Staphylococcus aureus [8] = experiment: Antibacterial activity against methicillin-resistant Staphylococcus aureus 110834 clinical isolate after 20 to 24 hrs by two-fold microdilution method
Staphylococcus aureus [9] = experiment: Antibacterial activity against methicillin-resistant Staphylococcus aureus 216054 clinical isolate after 20 to 24 hrs by two-fold microdilution method
Streptococcus pneumoniae = experiment: Antibacterial activity against Streptococcus pneumoniae ATCC 6305 after 20 to 24 hrs by two-fold microdilution method
Staphylococcus aureus [10] = experiment: Antibacterial activity against methicillin-resistant Staphylococcus aureus 215073 clinical isolate after 20 to 24 hrs by two-fold microdilution method
Staphylococcus aureus [11] = experiment: Antibacterial activity against methicillin-resistant Staphylococcus aureus 1128040 clinical isolate after 20 to 24 hrs by two-fold microdilution method
Staphylococcus aureus [12] = experiment: Antibacterial activity against methicillin-resistant Staphylococcus aureus 531220 clinical isolate after 20 to 24 hrs by two-fold microdilution method
Staphylococcus aureus [13] = experiment: Antibacterial activity against methicillin-resistant Staphylococcus aureus 118038 clinical isolate after 20 to 24 hrs by two-fold microdilution method
Staphylococcus aureus [14] = experiment: Antibacterial activity against methicillin-resistant Staphylococcus aureus 110325 clinical isolate after 20 to 24 hrs by two-fold microdilution method
Staphylococcus aureus [15] = experiment: Antibacterial activity against methicillin-resistant Staphylococcus aureus 1029025 clinical isolate after 20 to 24 hrs by two-fold microdilution method
Staphylococcus aureus [16] = experiment: Antibacterial activity against methicillin-resistant Staphylococcus aureus 11819 clinical isolate after 20 to 24 hrs by two-fold microdilution method
Staphylococcus aureus [17] = experiment: Antibacterial activity against methicillin-resistant Staphylococcus aureus 822030 clinical isolate after 20 to 24 hrs by two-fold microdilution method
Staphylococcus aureus [18] = experiment: Antibacterial activity against methicillin-resistant Staphylococcus aureus 414244 clinical isolate after 20 to 24 hrs by two-fold microdilution method
Staphylococcus aureus [19] = experiment: Antibacterial activity against methicillin-resistant Staphylococcus aureus 219236 clinical isolate after 20 to 24 hrs by two-fold microdilution method
Staphylococcus aureus [20] = experiment: Antibacterial activity against methicillin-resistant Staphylococcus aureus 202045 clinical isolate after 20 to 24 hrs by two-fold microdilution method
Staphylococcus aureus [21] = experiment: Antibacterial activity against methicillin-resistant Staphylococcus aureus ATCC 43300 after 20 to 24 hrs by two-fold microdilution method
Staphylococcus aureus [22] = experiment: Antibacterial activity against methicillin-resistant Staphylococcus aureus 1211026 clinical isolate after 20 to 24 hrs by two-fold microdilution method
Staphylococcus aureus [23] = experiment: Antibacterial activity against methicillin-resistant Staphylococcus aureus 30116-1 clinical isolate after 20 to 24 hrs by two-fold microdilution method
Staphylococcus aureus [24] = experiment: Antibacterial activity against methicillin-resistant Staphylococcus aureus 829034 clinical isolate after 20 to 24 hrs by two-fold microdilution method
Staphylococcus aureus [25] = experiment: Antibacterial activity against methicillin-resistant Staphylococcus aureus 20339 clinical isolate after 20 to 24 hrs by two-fold microdilution method
Staphylococcus aureus [26] = experiment: Antibacterial activity against methicillin-resistant Staphylococcus aureus 625032 clinical isolate after 20 to 24 hrs by two-fold microdilution method
Staphylococcus aureus [27] = experiment: Antibacterial activity against methicillin-resistant Staphylococcus aureus 102849 clinical isolate after 20 to 24 hrs by two-fold microdilution method
Staphylococcus aureus [28] = experiment: Antibacterial activity against methicillin-resistant Staphylococcus aureus 1019240 clinical isolate after 20 to 24 hrs by two-fold microdilution method
Staphylococcus aureus [29] = experiment: Antibacterial activity against methicillin-resistant Staphylococcus aureus 1215028 clinical isolate after 20 to 24 hrs by two-fold microdilution method
Staphylococcus aureus [30] = experiment: Antibacterial activity against methicillin-resistant Staphylococcus aureus 109016 clinical isolate after 20 to 24 hrs by two-fold microdilution method
Staphylococcus aureus [31] = experiment: Antibacterial activity against methicillin-resistant Staphylococcus aureus 110432 clinical isolate after 20 to 24 hrs by two-fold microdilution method
Staphylococcus aureus [32] = experiment: Antibacterial activity against methicillin-resistant Staphylococcus aureus 110328-1 clinical isolate after 20 to 24 hrs by two-fold microdilution method
Streptococcus pyogenes = experiment: Antibacterial activity against Streptococcus pyogenes ATCC 19615 after 20 to 24 hrs by two-fold microdilution method
Staphylococcus aureus [33] = experiment: Antibacterial activity against methicillin-resistant Staphylococcus aureus 131215 clinical isolate after 20 to 24 hrs by two-fold microdilution method
Staphylococcus aureus [34] = experiment: Antibacterial activity against methicillin-resistant Staphylococcus aureus 1012039 clinical isolate after 20 to 24 hrs by two-fold microdilution method
Staphylococcus aureus [35] = experiment: Antibacterial activity against methicillin-resistant Staphylococcus aureus 121026 clinical isolate after 20 to 24 hrs by two-fold microdilution method
Staphylococcus aureus [36] = experiment: Antibacterial activity against methicillin-resistant Staphylococcus aureus 304243 clinical isolate after 20 to 24 hrs by two-fold microdilution method
Staphylococcus aureus [37] = experiment: Antibacterial activity against methicillin-resistant Staphylococcus aureus 1212221 clinical isolate after 20 to 24 hrs by two-fold microdilution method
Staphylococcus aureus [38] = experiment: Antibacterial activity against methicillin-resistant Staphylococcus aureus 20106-2 clinical isolate after 20 to 24 hrs by two-fold microdilution method
Staphylococcus aureus [39] = experiment: Antibacterial activity against methicillin-resistant Staphylococcus aureus 919205 clinical isolate after 20 to 24 hrs by two-fold microdilution method
Staphylococcus aureus [40] = experiment: Antibacterial activity against methicillin-resistant Staphylococcus aureus 519238 clinical isolate after 20 to 24 hrs by two-fold microdilution method
Staphylococcus aureus [41] = experiment: Antibacterial activity against methicillin-resistant Staphylococcus aureus 1111047-1 clinical isolate after 20 to 24 hrs by two-fold microdilution method
Staphylococcus aureus [42] = experiment: Antibacterial activity against methicillin-resistant Staphylococcus aureus 1216052 clinical isolate after 20 to 24 hrs by two-fold microdilution method
Staphylococcus aureus [43] = experiment: Antibacterial activity against methicillin-resistant Staphylococcus aureus 11703 clinical isolate after 20 to 24 hrs by two-fold microdilution method
Staphylococcus aureus [44] = experiment: Antibacterial activity against methicillin-resistant Staphylococcus aureus 1113041 clinical isolate after 20 to 24 hrs by two-fold microdilution method
Staphylococcus aureus [45] = experiment: Antibacterial activity against methicillin-resistant Staphylococcus aureus 121969 clinical isolate after 20 to 24 hrs by two-fold microdilution method

CN1CCN(CCCCCCOC(=O)c2c3c(n4cc(Br)ccc24)C(=O)c2ncccc2C3=O)CC1
MIC (Staphylococcus aureus [1]): 0.125 µg/mL (≈ 0.226 µM)
MIC (Staphylococcus aureus [2]): ≤ 0.0078 µg/mL
MIC (Staphylococcus aureus [3]): 0.125 µg/mL (≈ 0.226 µM)
MIC (Staphylococcus aureus [4]): 0.031 µg/mL (≈ 0.056 µM)
MIC (Staphylococcus aureus [5]): 0.25 µg/mL (≈ 0.452 µM)
MIC (Staphylococcus aureus [6]): 0.25 µg/mL (≈ 0.452 µM)
MIC (Staphylococcus aureus [7]): 0.25 µg/mL (≈ 0.452 µM)
MIC (Staphylococcus aureus [8]): 0.125 µg/mL (≈ 0.226 µM)
MIC (Staphylococcus aureus [9]): 0.125 µg/mL (≈ 0.226 µM)
MIC (Streptococcus pneumoniae): 0.5 µg/mL (≈ 0.903 µM)
MIC (Staphylococcus aureus [10]): 0.063 µg/mL (≈ 0.114 µM)
MIC (Staphylococcus aureus [11]): 0.063 µg/mL (≈ 0.114 µM)
MIC (Staphylococcus aureus [12]): ≤ 0.0078 µg/mL
MIC (Staphylococcus aureus [13]): 0.25 µg/mL (≈ 0.452 µM)
MIC (Staphylococcus aureus [14]): ≤ 0.0078 µg/mL
MIC (Staphylococcus aureus [15]): 0.063 µg/mL (≈ 0.114 µM)
MIC (Staphylococcus aureus [16]): 0.063 µg/mL (≈ 0.114 µM)
MIC (Staphylococcus aureus [17]): 0.25 µg/mL (≈ 0.452 µM)
MIC (Staphylococcus aureus [18]): 0.063 µg/mL (≈ 0.114 µM)
MIC (Staphylococcus aureus [19]): 0.063 µg/mL (≈ 0.114 µM)
MIC (Staphylococcus aureus [20]): 0.25 µg/mL (≈ 0.452 µM)
MIC (Staphylococcus aureus [21]): ≤ 0.0078 µg/mL
MIC (Staphylococcus aureus [22]): 0.125 µg/mL (≈ 0.226 µM)
MIC (Staphylococcus aureus [23]): 0.125 µg/mL (≈ 0.226 µM)
MIC (Staphylococcus aureus [24]): 0.5 µg/mL (≈ 0.903 µM)
MIC (Staphylococcus aureus [25]): 0.5 µg/mL (≈ 0.903 µM)
MIC (Staphylococcus aureus [26]): 0.125 µg/mL (≈ 0.226 µM)
MIC (Staphylococcus aureus [27]): 0.125 µg/mL (≈ 0.226 µM)
MIC (Staphylococcus aureus [28]): 0.25 µg/mL (≈ 0.452 µM)
MIC (Staphylococcus aureus [29]): 0.063 µg/mL (≈ 0.114 µM)
MIC (Staphylococcus aureus [30]): 0.031 µg/mL (≈ 0.056 µM)
MIC (Staphylococcus aureus [31]): 0.125 µg/mL (≈ 0.226 µM)
MIC (Staphylococcus aureus [32]): ≤ 0.0078 µg/mL
MIC (Streptococcus pyogenes): 2 µg/mL (≈ 3.61 µM)
MIC (Staphylococcus aureus [33]): 0.063 µg/mL (≈ 0.114 µM)
MIC (Staphylococcus aureus [34]): 0.125 µg/mL (≈ 0.226 µM)
MIC (Staphylococcus aureus [35]): 0.031 µg/mL (≈ 0.056 µM)
MIC (Staphylococcus aureus [36]): 0.25 µg/mL (≈ 0.452 µM)
MIC (Staphylococcus aureus [37]): 0.063 µg/mL (≈ 0.114 µM)
MIC (Staphylococcus aureus [38]): 0.25 µg/mL (≈ 0.452 µM)
MIC (Staphylococcus aureus [39]): 0.125 µg/mL (≈ 0.226 µM)
MIC (Staphylococcus aureus [40]): 0.25 µg/mL (≈ 0.452 µM)
MIC (Staphylococcus aureus [41]): 1 µg/mL (≈ 1.81 µM)
MIC (Staphylococcus aureus [42]): 16 µg/mL (≈ 28.9 µM)
MIC (Staphylococcus aureus [43]): 0.25 µg/mL (≈ 0.452 µM)
MIC (Staphylococcus aureus [44]): 0.125 µg/mL (≈ 0.226 µM)
MIC (Staphylococcus aureus [45]): 0.125 µg/mL (≈ 0.226 µM)
